This experiment concerns the target T1, human H-PGDS (Homo sapiens, UniProt O60760).
T1 construct: Full length human H-PGDS cDNA (Invitrogen Ultimate ORF IOH13026) was amplified by PCR; 6-His (N); TEV protease cleavage site (N); made in house; host or cells: E. coli BL21 (DE3*) for H-PGDS; Sf9 insect cells (baculovirus) for COX-2
The experiment can be described thus: H-PGDS RapidFire high throughput mass spectrometry assay. Type of experiment: biochemical. The settings on record: inhibition of conversion of PGH2 to PGD2 by H-PGDS; mean pIC50; read-out: Potency Range (mean pIC50) (converted). In short, it runs like this:
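Full-length His-tagged human H-PGDS from E. coli converted PGH2, generated in situ (~10 μM burst) from arachidonic acid by FLAG-tagged human COX-2 (Sf9-expressed). PGD2 and PGF2α (substrate surrogate) were measured by RapidFire SPE-triple quadrupole MS. Percent conversion was calculated, and inhibition was taken as reduced conversion.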

Results on one compound are retold here after patent publication US20220009918A1, “Chemical Compounds” (GlaxoSmithKline Intellectual Property Development Limited, priority 2018, published 2022).

T1 sequence (O60760 whole entry): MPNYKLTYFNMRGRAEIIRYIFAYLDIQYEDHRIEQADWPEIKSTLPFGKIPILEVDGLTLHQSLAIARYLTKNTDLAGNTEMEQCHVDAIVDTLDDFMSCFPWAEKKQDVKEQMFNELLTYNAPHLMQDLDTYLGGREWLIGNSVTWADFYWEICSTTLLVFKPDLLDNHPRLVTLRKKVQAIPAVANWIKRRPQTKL

Regarding `CC1(C)C[C@H](NC(=O)c2cnc(-c3cc(F)cc(Cl)c3)s2)C(=O)N1` (single isomer, unassigned) [Example 16], the IC50 was 10.2 to 100 nM.
